Data as given in US11578055B2, “Triazacyclododecansulfonamide (“TCD”)-based protein secretion inhibitors” (KEZAR LIFE SCIENCES, priority 2018, dated 2023).

Assays:
[1] = In Vitro Microsome Stability Assay (mouse); format: in vitro ADME; details: mouse liver microsomes, 30 min w/ NADPH
In short: (§1)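 Species liver microsomes in potassium phosphate buffer were preincubated at 37 °C for 3–5 min with test compound (added from 0.25 mM DMSO stock), then started with NADPH. Samples at 0 and 30 min were quenched with acetonitrile containing internal standard and analysed by LC-MS/MS; % remaining at 30 min used analyte/IS AUC ratios relative to t=0.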

[2] = system: multiple myeloma cell line U266B1; test: U266 Cell Viability Assay; format: cell-based, human; details: Homo sapiens, U-266; 48 hr, U266, Celltiter-Glo
In short: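 Viability was measured by CellTiter-Glo luminescence after 48 h compound exposure at 37° C, 5% CO2. The cells were U266B1 multiple myeloma cells grown in RPMI 1640 plus 10% FBS. Where stereochemistry is not shown, values apply to the stereoisomer mixture.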

[3] = In Vitro Microsome Stability Assay (monkey); format: in vitro ADME; details: monkey liver microsomes, 30 min w/ NADPH
In short: as §1

[4] = In Vitro Microsome Stability Assay (rat); format: in vitro ADME; details: rat liver microsomes, 30 min w/ NADPH
In short: as §1

[5] = system: HER3 signal sequence plus 4 amino acids fused to Gaussia Luciferase (HER3-ss+4aa/Gaussia Luciferase); test: Dox Induced HER3-ss-Gluc Assay; format: cell-based; details: 24 hr, doxycycline induced, Flp-In 293 T-REx cells; read-out: 24 hr Dox Inducible Her3(ss + 4) Gluc 293FRT/TO: Mean 1050
Text: FIp-In 293 T-REx™ cells were transfected with pcDNA™5/FRT/TO plasmid inserted with cDNA encoding Gaussia Luciferase fused to the 3′ end of cDNA encoding HER3 signal sequence plus 4 amino acids (N-[…]-C) (SEQ ID NO: 2). Transfected cells were selected for resistance to the selectable markers Hygromycin and Blasticidin to create a stable cell line that contained the HER3-ss+4aa/Gaussia Luciferase cDNA insert whose expression was regulated under the T-REx™ system. The day before assay, cells were trypsinized and plated in 384-well tissue culture plates. The next day, compound dilutions in DMSO/media containing doxycycline were added to the wells and incubated at 37° C., 5% CO2.
For chemical structures that include one or more stereoisomers, but are illustrated without indicating stereochemistry, the assay data refers to a mixture of stereoisomers.

[6] = system: full length IL-2 (amino acids 1-153) fused to Gaussia Luciferase; test: Dox Induced IL2-FL-Gluc Assay; format: cell-based; details: 24 hr, Dox inducible, 293FRT/TO cells; read-out: 24 hr Dox Inducible IL2FLGluc 293FRT/TO: Mean IC50
In short: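 Compounds in DMSO/media with doxycycline were added to cells plated the previous day and incubated at 37° C, 5% CO2. Cells: stable Flp-In 293 T-REx line, Dox-regulated expression of IL-2 (aa 1-153) fused at its C-terminus to Gaussia luciferase.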

[7] = In Vitro Microsome Stability Assay (human); format: in vitro ADME; details: human liver microsomes, 30 min w/ NADPH
In short: as §1

[8] = system: multiple myeloma cell line NCl-H929; test: H929 Cell Viability Assay; format: cell-based, human; details: Homo sapiens, NCI-H929, 48 h, H929, Celltiter-Glo
In short: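 Viability was determined by CellTiter-Glo luminescence after a 48 h, 37 °C exposure of NCI-H929 cells to serial compound dilutions in medium containing 10% FBS. Where stereochemistry is not shown, values refer to a mix of stereoisomers.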

[9] = system: PD1 signal sequence plus 10 amino acids fused to Gaussia Luciferase (PD1-ss+10aa/Gaussia Luciferase); test: Dox Induced PD1-ss-Gluc Assay; format: cell-based; details: 24 hr, Dox inducible, 293FRT/TO cells; read-out: 24 hr Dox Inducible PD1ssGluc 293FRT/TO: Mean IC50
In short: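 Compound dilutions in DMSO/media containing doxycycline were applied to a stable, inducible 293 T-REx line carrying the luciferase fusion, then incubated at 37 °C, 5% CO2. Where stereochemistry is not drawn, values relate to isomer mixtures.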

[10] = system: full length TNFα (amino acids 1-233) fused to Gaussia Luciferase; test: Dox Induced TNFα-FL-Gluc Assay; format: cell-based; details: 24 hr, Dox inducible, 293FRT/TO cells; read-out: 24 hr Dox Inducible TNFaFLGluc 293FRT/TO: Mean IC50
In short: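 Compounds diluted in DMSO/medium with doxycycline were incubated at 37° C, 5% CO2 with 293 T-REx cells stably carrying a Tet-regulated TNFα(1-233)-Gaussia luciferase construct. Data for structures drawn without stereochemistry refer to stereoisomer mixtures.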

| SMILES | Liver Microsome Stability-% Left after 30 min w/ NADPH (%) Mouse [1] | EC50 [2] | Liver Microsome Stability-% Left after 30 min w/ NADPH (%) Monkey [3] | Liver Microsome Stability-% Left after 30 min w/ NADPH (%) Rat [4] | IC50 [5] | IC50 [6] | Liver Microsome Stability-% Left after 30 min w/ NADPH (%) Human [7] | EC50 [8] | IC50 [9] | IC50 [10] |
| --- | --- | --- | --- | --- | --- | --- | --- | --- | --- | --- |
| C[C@@H]1CN(S(=O)(=O)NCc2ccccc2)CCCN(CC2CCCCC2)CCCN(S(=O)(=O)c2ccc(N(C)C)cc2)C1 [A187, (3S)-N-benzyl-9-(cyclohexylmethyl)-5-[4-(dimethylamino)benzenesulfonyl]-3-methyl-1,5,9-triazacyclododecane-1-sulfonamide] | 0.03% | > 25 µM | 0.15% | 0.07% | 0.802 µM | 1.09 µM | 0.05% | 3.87 µM | 0.427 µM | 6.17 µM |
| C[C@H]1CN(S(=O)(=O)c2ccc3c(ccn3C)c2)CCCN(CC2CCCCC2)CCCN(S(=O)(=O)N2CCc3cc(Cl)ccc3C2)C1 [A188, 6-chloro-2-{[(3S)-9-(cyclohexylmethyl)-3-methyl-5-[(1-methyl-1 H-indol-5-yl)sulfonyl]-1,5,9-triazacyclododecan-1-yl]sulfonyl}-1,2,3,4-tetrahydroisoquinoline] | 4.48% | > 25 µM | 12.4% | 27.8% | 0.088 µM | 0.0993 µM | 27% | 1.56 µM | 0.0389 µM | 0.714 µM |
| CCc1ccc(CNS(=O)(=O)N2CCCN(CC3CCCCC3)CCCN(S(=O)(=O)c3ccc(N(C)C)cc3)C[C@H](C)C2)cc1 [A189, (3S)-9-(cyclohexylmethyl)-5-[4-(dimethylamino)benzenesulfonyl]-N-[(4-ethylpheny)methyl]-3-methyl-1,5,9-triazacyclododecane-1-sulfonamide] | 0.14% | > 25 µM | 0.01% | 0.07% | 0.96 µM | 1.36 µM | 0.06% | 10.6 µM | 0.512 µM | 8.14 µM |
| C[C@H]1CN(S(=O)(=O)c2ccc(N(C)C)cc2)CCCN([C@@H](C)C2CCCCC2)CCCN(S(=O)(=O)N2CCc3cc(Cl)ccc3C2)C1 [A190, 4-{[(3S)-5-[(6-chloro-1,2,3,4-tetrahydroisoquinolin-2-yl)sulfonyl]-9-[(1 S)-1-cyclohexylethyl]-3-methyl-1,5,9-triazacyclododecan-1-yl]sulfonyl}-N,N-dimethylaniline] | 69.3% | > 25 µM | 71.6% | 85.3% | 0.0356 µM | 0.0457 µM | 74.1% | 0.867 µM | 0.0162 µM | 0.295 µM |
| C[C@H]1CN(S(=O)(=O)c2ccc(N(C)C)cc2)CCCN([C@H](C)C2CCCCC2)CCCN(S(=O)(=O)N2CCc3cc(Cl)ccc3C2)C1 [A191, 4-{[(3S)-5-[(6-chloro-1,2,3,4-tetrahydroisoquinolin-2-yl)sulfonyl]-9-[(1 R)-1-cyclohexylethyl]-3-methyl-1,5,9-triazacyclododecan-1-yl]sulfonyl}-N,N-dimethylaniline] | 55.3% | > 25 µM | 68.3% | 65.0% | 0.117 µM | 0.145 µM | 48.6% | 6.73 µM | 0.0576 µM | 1.1 µM |
| CC(=O)N(C)c1ccc(CNS(=O)(=O)N2CCCN(CC3CCCCC3)CCCN(S(=O)(=O)c3ccc(N(C)C)cc3)C[C@H](C)C2)cc1 [A192, N-{4-[({[(3S)-9-(cyclohexylmethyl)-5-[4-(dimethylamino)benzenesulfonyl]-3-methyl-1,5,9-triazacyclododecan-1-yl]sulfonyl}amino)methyl]phenyl}-N-methylacetamide] | 0.18% | > 25 µM | 0.10% | 0.08% | 1.71 µM | 2.33 µM | 0.02% | 9.36 µM | 1.15 µM | > 25 µM |
| COc1cc(F)ccc1N1CCN(S(=O)(=O)N2CCCN(CC3CCCCC3)CCCN(S(=O)(=O)c3ccc(N(C)C)cc3)CC3(CC3)C2)CC1 [A193] | 10.1% | > 25 µM | 7.72% | 11.3% | 0.0508 µM | 0.0818 µM | 34.2% | 6.81 µM | 0.0238 µM | 0.748 µM |
| COc1cc(F)cc(N2CCN(S(=O)(=O)N3CCCN(CC4CCCCC4)CCCN(S(=O)(=O)c4ccc(N(C)C)cc4)C[C@H](C)C3)C[C@@H]2C)c1 [A194] | 68.5% | > 25 µM | 65.0% | 59.2% | 0.303 µM | 0.402 µM | 63.6% | > 25 µM | 0.261 µM | > 25 µM |
| COc1cc(F)cc(N2CCN(S(=O)(=O)N3CCCN(CC4CCCCC4)CCCN(S(=O)(=O)c4ccc(N(C)C)cc4)CC4(CC4)C3)C[C@H]2C)c1 [A195] | 58.5% | > 25 µM | 32.8% | 63.3% | 0.382 µM | 0.668 µM | 53.6% | > 25 µM | 0.211 µM | 11.2 µM |
| COc1cc(F)cc(N2[C@H](C)CN(S(=O)(=O)N3CCCN(CC4CCCCC4)CCCN(S(=O)(=O)c4ccc(N(C)C)cc4)C[C@H](C)C3)C[C@@H]2C)c1 [A197] | 65.4% | > 25 µM | 92.8% | 76.6% | 0.0775 µM | 0.0955 µM | 70.7% | 4.13 µM | 0.0343 µM | 0.666 µM |
| C[C@H]1CN(S(=O)(=O)c2ccc(N(C)C)cc2)CCCN(CC2CCCCC2)CCCN(S(=O)(=O)N2CCN(c3ccccc3Cl)CC2)C1 [A198, 4-{[(3S)-5-{[4-(2-chlorophenyl)piperazin-1-yl]sulfonyl}-9-(cyclohexylmethyl)-3-methyl-1,5,9-triazacyclododecan-1-yl]sulfonyl}-N,N-dimethylaniline] | 68.2% | > 25 µM | 65.1% | 61.4% | 0.0441 µM | 0.0533 µM | 39.2% | 1.17 µM | 0.0185 µM | 0.373 µM |
